Experimental data taken from ChEMBL document CHEMBL1150321.
Activity calls are given as the source filed them. The rule behind the calls is not given here.

Tests used:
[1] = target: Baculoviral IAP repeat-containing protein 2 (Homo sapiens) (UniProt Q13490); assay: Binding affinity to human BIR3 domain of cIAP1 by fluorescence polarization assay
[2] = target: Baculoviral IAP repeat-containing protein 2 (Homo sapiens) (UniProt Q13490); assay: Binding affinity to human BIR3 domain of cIAP1 by photoaffinity labeling assay in presence of (S)-2-((2S,3R)-3-Amino-2-hydroxy-4-phenyl-butyrylamino)-4-methyl-pentanoic acid methyl ester
[3] = target: Baculoviral IAP repeat-containing protein 2 (Homo sapiens) (UniProt Q13490); assay: Binding affinity to human BIR3 domain of cIAP1 at 150 uM after 30 mins by photoaffinity labeling assay in presence of (S)-2-((2S,3R)-3-Amino-2-hydroxy-4-phenyl-butyrylamino)-4-methyl-pentanoic acid methyl ester

Sequence of Baculoviral IAP repeat-containing protein 2 (Homo sapiens) (Q13490 whole entry, looked up, the tested form may be a part): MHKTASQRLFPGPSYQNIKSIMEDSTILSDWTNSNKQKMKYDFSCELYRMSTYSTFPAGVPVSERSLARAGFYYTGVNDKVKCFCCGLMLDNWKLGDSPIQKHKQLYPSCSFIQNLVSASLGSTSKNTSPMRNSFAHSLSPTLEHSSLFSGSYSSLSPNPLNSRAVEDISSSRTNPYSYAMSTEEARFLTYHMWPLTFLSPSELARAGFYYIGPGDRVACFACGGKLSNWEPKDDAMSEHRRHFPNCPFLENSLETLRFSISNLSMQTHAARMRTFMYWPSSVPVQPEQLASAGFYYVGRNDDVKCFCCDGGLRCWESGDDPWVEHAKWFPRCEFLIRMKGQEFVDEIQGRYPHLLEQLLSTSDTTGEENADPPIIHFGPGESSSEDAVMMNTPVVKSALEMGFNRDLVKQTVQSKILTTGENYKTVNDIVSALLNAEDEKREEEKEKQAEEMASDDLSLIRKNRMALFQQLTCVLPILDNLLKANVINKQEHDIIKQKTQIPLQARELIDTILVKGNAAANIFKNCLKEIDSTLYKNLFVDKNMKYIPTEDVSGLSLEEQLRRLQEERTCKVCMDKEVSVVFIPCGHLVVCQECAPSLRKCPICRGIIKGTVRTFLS

Activity [1]	Activity [2]	Activity [3]	Structure (SMILES)
Active	Active	–	CC(C)C[C@H](NC(=O)[C@@H](O)[C@H](N)Cc1ccccc1)C(=O)OCCNS(=O)(=O)c1cccc2c(N(C)C)cccc12
–	–	Active	CC(C)C[C@H](NC(=O)[C@@H](O)[C@H](N)Cc1ccccc1)C(=O)OCCNS(=O)(=O)c1cccc2c(N=[N+]=[N-])cccc12
